The values below come from US9586952B2, “Polycyclic estrogen receptor modulators and uses thereof” (SERAGON PHARMACEUTICALS, INC., priority 2013, dated 2017).

The test system of one test is MCF-7 cells. As to the kind of experiment: MCF7 Viability Assay (Breast Cancer Cell Viability Assay). The settings on record: 5 days' compound exposure, CellTiter-Glo; for IC50: Homo sapiens, MCF7, 120 h. Type of test: cell-based. The method, then: MCF-7 cells were adjusted to a concentration of 20,000 cells per mL in RPMI containing 10% FBS and 20 mM HEPES. 16 microliters of the cell suspension (320 cells) was added to each well of a 384 well plate, and the cells were incubated overnight to allow the cells to adhere. The following day an eleven point, serial semilog dilution of each compound was added to the cells in 16 μL at a final concentration ranging from 0.3-0.000003 μM. After 5 days' compound exposure, 16 μL of CellTiter-GLo (Promega, Madison Wis.) was added to the cells, and the relative luminescence units (RLUs) of each well were determined. CellTiter-Glo added to 32 μL of medium without cells was used to obtain a background value. The Percent viability of each sample was determined as follows: (RLU sample-RLU background/RLU untreated cells-RLU background)×100=% viability.
A general note: ATP-based viability assays read luminescence as a measure of living cells.

Another test concerns the target T1, ER-α (Homo sapiens, UniProt P03372).
T1 construct: endogenous in cells; host or cells: MCF-7
T1 sequence (P03372 1-595): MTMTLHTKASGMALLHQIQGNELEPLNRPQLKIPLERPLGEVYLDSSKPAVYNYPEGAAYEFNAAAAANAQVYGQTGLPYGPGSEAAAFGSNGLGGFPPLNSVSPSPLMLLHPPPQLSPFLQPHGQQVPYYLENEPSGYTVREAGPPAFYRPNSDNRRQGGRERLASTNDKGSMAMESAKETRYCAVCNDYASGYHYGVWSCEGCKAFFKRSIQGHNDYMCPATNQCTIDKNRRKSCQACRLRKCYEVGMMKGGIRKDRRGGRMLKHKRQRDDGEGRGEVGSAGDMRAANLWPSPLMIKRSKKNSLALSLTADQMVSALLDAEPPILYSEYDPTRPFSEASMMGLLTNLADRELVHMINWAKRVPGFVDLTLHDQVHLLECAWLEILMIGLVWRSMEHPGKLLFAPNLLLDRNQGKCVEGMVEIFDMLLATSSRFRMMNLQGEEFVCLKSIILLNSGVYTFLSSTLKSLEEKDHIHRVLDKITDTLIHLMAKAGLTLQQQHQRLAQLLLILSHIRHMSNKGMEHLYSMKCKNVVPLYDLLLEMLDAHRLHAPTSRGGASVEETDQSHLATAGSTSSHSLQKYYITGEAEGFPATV
As to the kind of experiment: Breast Cancer Cell ER-α In Cell Western Assay (SP1). It counts as cell-based. Particulars: MCF-7 cells, 4 or 24 hr post compound addition, SP1 antibody; for Emax: MCF7, read-out: ER-α In Cell Western Assay (SP1) Max Response; for DC50: read-out: ER-α In Cell Western Assay (SP1) IC50. The method, then:
MCF-7 cells were adjusted to a concentration of 200,000 cells per mL in RPMI containing 10% charcoal-stripped FBS and 20 mM HEPES. 16 microliters of the cell suspension (3200 cells) was added to each well of a poly-D-lysine 384 well plate, and the cells were incubated overnight to allow the cells to adhere. The following day an eleven point, serial semilog dilution of each compound was added to the cells in 16 μL at a final concentration ranging from 0.3-0.000003 μM. At 4 or 24 hr post compound addition, the cells were fixed (10% formalin in PBS) for 20 minutes. Cells were permeablized in PBS 0.1% Triton and blocked with LICOR blocking buffer (50 μl/well, 90′). The wells were then incubated overnight at 4° C. with SP1 rabbit monoclonal Ab (Thermo Scientific) diluted 1:1000 in LICOR blocking buffer/0.1% Tween-20. Wells which were treated with blocking buffer with Tween but no antibody were used as a background control. Wells were washed with 0.1% Tween-20/PBS and then incubated in goat anti-rabbit IRDye™ 800 CW (LICOR Inc.; 1:10000) and DRAQ5 DNA dye (1:2000 for 2 mM stock) diluted in LICOR blocking buffer containing 0.1% Tween-20 and 0.01% SDS for 60 minutes. Cells were washed (50 μl/well, 5′ each) in 0.1% Tween-20/PBS. Plates were scanned on a LICOR Odyssey infrared imaging system. Integrated intensities in the 800 nm channel and 700 nm channel were measured to determine levels of ER and DNA respectively. Percent ER levels were determined as follows: (Integrated intensity 800 nm sample/integrated intensity 700 nm sample)/(Integrated intensity 800 nm untreated cells/integrated intensity 700 nm untreated cells)×100=% ER levels.

The term IC50 denotes the midpoint of a concentration-inhibition curve. In the case of `O=C(O)/C=C/c1ccc(/C(=C(\c2ccc(F)cc2Cl)C2CCC2)c2ccc(N3CCOCC3)cc2)cc1` [Example 36, (E)-3-(4-((E)-2-(2-Chloro-4-fluorophenyl)-2-cyclobutyl-1-(4-morpholinophenyl)vinyl)phenyl)acrylic acid], in the test on MCF-7 cells, the “MCF7 Viability Assay Max Response” value is “++ (++ = a single % value ≧ 40%)” and the half-maximal inhibitory concentration (IC50) is at most 100 nM. In addition, on ER-α, the Emax was at least 40% and the DC50 is at most 100 nM.

Regarding `O=C(O)/C=C/c1ccc(/C(=C(\c2ccncc2Cl)C2CCC2)c2ccc(-c3cncs3)cc2)cc1` [Example 34, (E)-3-(4-((E)-2-(3-Chloropyridin-4-yl)-2-cyclobutyl-1-(4-(thiazol-5-yl)phenyl)vinyl)phenyl)acrylic acid], in the test on MCF-7 cells, the “MCF7 Viability Assay Max Response” value was “++ (++ = a single % value ≧ 40%)” and the IC50 is at most 100 nM. At ER-α, the Emax was at least 40% and the DC50 was at most 100 nM.

Consider `CC/C(=C(/c1ccc(/C=C/C(=O)O)cc1)c1ccc(-c2ccn[nH]2)cc1)c1ccccc1` [Example 6, (E)-3-(4-((E)-1-(4-(1H-Pyrazol-5-yl)phenyl)-2-phenylbut-1-en-1-yl)phenyl)acrylic acid], for which, in the test with MCF-7 cells, the “MCF7 Viability Assay Max Response” value is “++ (++ = a single % value ≧ 40%)” and the IC50 is above 100 nM. Besides, at ER-α, the Emax is at least 40% and the DC50 was at most 100 nM.

On to `CC/C(=C(/c1ccc(/C=C/C(=O)O)cc1)c1ccc(N2CCOCC2)cc1)c1ccccc1` [Example 16, (E)-3-(4-((E)-1-(4-Morpholinophenyl)-2-phenylbut-1-en-1-yl)phenyl)acrylic acid], for which, in the test on MCF-7 cells, the “MCF7 Viability Assay Max Response” value was “++ (++ = a single % value ≧ 40%)” and the IC50 was at most 100 nM. In addition, at ER-α, the Emax is at least 40% and the DC50 was at most 100 nM.

With `N#Cc1ccc(/C(=C(\c2ccc(/C=C/C(=O)O)cc2)c2ccc(-c3cncs3)cc2)C2CCC2)c(Cl)c1` [Example 5, (E)-3-(4-((E)-2-(2-Chloro-4-cyanophenyl)-2-cyclobutyl-1-(4-(thiazol-5-yl)phenyl)vinyl)phenyl)acrylic acid], in the test with MCF-7 cells, the “MCF7 Viability Assay Max Response” value was “++ (++ = a single % value ≧ 40%)” and the IC50 was at most 100 nM. In addition, at ER-α, the Emax is at least 40% and the DC50 was at most 100 nM.

`O=C(O)/C=C/c1ccc(/C(=C(\c2ccccc2)C2CCC2)c2ccc(-c3ccon3)cc2)cc1` [Example 27, (E)-3-(4-((E)-2-Cyclobutyl-1-(4-(isoxazol-3-yl)phenyl)-2-phenylvinyl)phenyl)acrylic acid]: in the test with MCF-7 cells, the “MCF7 Viability Assay Max Response” value is “++ (++ = a single % value ≧ 40%)” and the IC50 was at most 100 nM. Also, on ER-α, the Emax is at least 40% and the DC50 is at most 100 nM.

As for `COc1ccc(/C(=C(\c2ccc(/C=C/C(=O)O)cc2)c2ccc(-c3nn[nH]n3)cc2)C2CCC2)c(Cl)c1` [Example 50, (E)-3-(4-((E)-1-(4-(2H-Tetrazol-5-yl)phenyl)-2-(2-chloro-4-methoxyphenyl)-2-cyclobutylvinyl)phenyl)acrylic acid], in the test on MCF-7 cells, the “MCF7 Viability Assay Max Response” value was “++ (++ = a single % value ≧ 40%)” and the IC50 is above 100 nM. Further, on ER-α, the Emax was at least 40% and the DC50 was above 100 nM.

In the case of `N#Cc1cc(Cl)ccc1/C(=C(\c1ccc(/C=C/C(=O)O)cc1)c1ccc(-c2cn[nH]c2)cc1)C1CCC1` [Example 44, (E)-3-(4-((E)-1-(4-(1H-Pyrazol-4-yl)phenyl)-2-(4-chloro-2-cyanophenyl)-2-cyclobutylvinyl)phenyl)acrylic acid], in the test with MCF-7 cells, the “MCF7 Viability Assay Max Response” value is on record as “++ (++ = a single % value ≧ 40%)” and the IC50 is at most 100 nM. On ER-α, the Emax was at least 40% and the DC50 is at most 100 nM.

As for `CC/C(=C(/c1ccc(/C=C/C(=O)O)cc1)c1ccc(-n2ccnc2)cc1)c1ccccc1` [Example 17, (E)-3-(4-((E)-1-(4-(1H-Imidazol-1-yl)phenyl)-2-phenylbut-1-en-1-yl)phenyl)acrylic acid], in the test with MCF-7 cells, the “MCF7 Viability Assay Max Response” value is reported as “++ (++ = a single % value ≧ 40%)” and the IC50 is above 100 nM. Also, on ER-α, the Emax was at least 40% and the DC50 is above 100 nM.

Turning to `CC/C(=C(/c1ccc(/C=C/C(=O)O)cc1)c1ccc(-c2cncs2)cc1)c1cscc1C` [Example 32, (E)-3-(4-((E)-2-(4-Methylthiophen-3-yl)-1-(4-(thiazol-5-yl)phenyl)but-1-en-1-yl)phenyl)acrylic acid], in the test with MCF-7 cells, the “MCF7 Viability Assay Max Response” value was “++ (++ = a single % value ≧ 40%)” and the IC50 is at most 100 nM. Further, at ER-α, the Emax is at least 40% and the DC50 is at most 100 nM.

As to `N#Cc1cc(Cl)ccc1/C(=C(\c1ccc(/C=C/C(=O)O)cc1)c1ccc(N2CCOCC2)cc1)C1CCC1` [Example 46, (E)-3-(4-((E)-2-(4-Chloro-2-cyanophenyl)-2-cyclobutyl-1-(4-morpholinophenyl)vinyl)phenyl)acrylic acid], in the test with MCF-7 cells, the “MCF7 Viability Assay Max Response” value is listed as “++ (++ = a single % value ≧ 40%)” and the IC50 is at most 100 nM. Besides, at ER-α, the Emax was at least 40% and the DC50 is at most 100 nM.

`O=C(O)/C=C/c1ccc(/C(=C(\c2ccc(C(F)(F)F)cc2Cl)C2CCC2)c2ccc(-c3cn[nH]c3)cc2)cc1` [Example 55, (E)-3-(4-((E)-1-(4-(1H-Pyrazol-4-yl)phenyl)-2-(2-chloro-4-(trifluoromethyl)phenyl)-2-cyclobutylvinyl)phenyl)acrylic acid]: in the test with MCF-7 cells, the “MCF7 Viability Assay Max Response” value was “++ (++ = a single % value ≧ 40%)” and the IC50 was at most 100 nM. Also, at ER-α, the Emax is at least 40% and the DC50 is at most 100 nM.

Take `CC/C(=C(/c1ccc(/C=C/C(=O)O)cc1)c1ccc(-c2cncs2)cc1)c1ccccc1Cl` [Example 29, (E)-3-(4-((E)-2-(2-Chlorophenyl)-1-(4-(thiazol-5-yl)phenyl)but-1-en-1-yl)phenyl)acrylic acid]: in the test on MCF-7 cells, the “MCF7 Viability Assay Max Response” value was “++ (++ = a single % value ≧ 40%)” and the 50% inhibitory concentration (IC50) was at most 100 nM. In addition, at ER-α, the Emax is at least 40% and the DC50 is at most 100 nM.

For the compound `Fc1ccc(/C(=C(\c2ccc(/C=C/c3nn[nH]n3)cc2)c2ccc(-c3cn[nH]c3)cc2)C2CCC2)c(Cl)c1` [Example 71, 5-((E)-4-((E)-1-(4-(1H-Pyrazol-4-yl)phenyl)-2-(2-chloro-4-fluorophenyl)-2-cyclobutylvinyl)styryl)-2H-tetrazole], in the test with MCF-7 cells, the “MCF7 Viability Assay Max Response” value is listed as “++ (++ = a single % value ≧ 40%)” and the IC50 was at most 100 nM. Further, at ER-α, the Emax was at least 40% and the DC50 is at most 100 nM.

With `O=C(O)/C=C/c1ccc(/C(=C(\c2ccc(OC(F)(F)F)cc2Cl)C2CCC2)c2ccc(-c3cn[nH]c3)cc2)cc1` [Example 52, (E)-3-(4-((E)-1-(4-(1H-Pyrazol-4-yl)phenyl)-2-(2-chloro-4-(trifluoromethoxy)phenyl)-2-cyclobutylvinyl)phenyl)acrylic acid], in the test with MCF-7 cells, the “MCF7 Viability Assay Max Response” value is reported as “++ (++ = a single % value ≧ 40%)” and the IC50 was at most 100 nM. For the same compound, on ER-α, the Emax is at least 40% and the DC50 was at most 100 nM.
